Measured values from patent US20240325544A1, “CATIONIC LIPID FOR COVALENT MODIFICATION OF PEPTIDES” (PharmalN Corporation, priority 2023, published 2024).
Where two headings read alike, the source gives them in different places. Marks after values point to notes of the source that are not given here. Numbered stars: 1 amine (or outer) side, 2 acyl side, 3 side chain; on linkers, the order of the positions; unused ones are H or OH. Bridge positions count the residues as written; N and C are the ends. Square brackets hold non-standard residues; d marks the D form. Peptide text beside a SMILES is read from it. * marks the point of attachment. C18 diacid = O=C(O)CCCCCCCCCCCCCCCCC(=O)*; γGlu = O=C(O)[C@H](CCC(=O)[*:2])N[*:1]; Stearoyl = CCCCCCCCCCCCCCCCCC(=O)*; Palmitoyl = CCCCCCCCCCCCCCCC(=O)*; Dab = NCC[C@H](N)C(=O)O; Dap = NC[C@H](N)C(=O)O; AEEA = NCCOCCOCC(=O)O; GABA = NCCCC(=O)O

Key:
[1] = Clinically observable adverse effects of cationic alkyl moieties after subcutaneous bolus in rats (Table 1); assay type: in vivo, rat; conditions: male, Sprague-Dawley, rat, in vivo, sc, tested at 3.0, 5.0 or 10 μmol/kg, lethargy is considered maximum tolerated bolus dose, read-out: Lethargy* in n = 3
Description: (§1) Drug administration and observation: Each rat received a subcutaneous injection of a cationic alkyl modifier (SEQ ID NO: 1-22; listed in Table 1 below) in a buffer of sterile water adjusted to a pH between 4.5-5, with an initial bolus dose of 5.0 μmol/kg and an injection volume of 1.0 mL/kg. The bolus dose level was adjusted based on observations, and animals were monitored closely for lethargy, ataxia, swelling, or discoloration during the first 4 hours post-injection and hourly thereafter. As used herein, “ataxia” means a clinical sign observed as poor muscle control that causes clumsy voluntary movements. It may cause difficulty with mobility, coordination, and eye movements. As used herein, “lethargy” means a clinical sign observed as inability or unwillingness to resume normal activity characterized by exploring and alertness. Lethargic rats are easily observed by displaying little to no activity and/or unwillingness to explore around, half closed eyes, and hunched posture. As used herein, “swelling” means a clinical sign observed as the enlargement or engorgement of body parts with blood or fluid and is associated with visible redness (discoloration). If no swelling occurred, dose level was increased to 10 μmol/kg; if swelling was present, bolus dose level was decreased to 3.0 μmol/kg. A wash-out period of 1 week was allowed between bolus doses, and animals were humanely euthanized through CO2 asphyxiation after final observation.

Sprague Dawley rats = assay: as above; assay type: in vivo, rat; conditions: tested at 3.0, 5.0 or 10 μmol/kg; for Swelling and/or Discoloration in n = 3: dose at which sign was seen; for Ataxia** in n = 3: ataxia is bolus dose limiting toxicity
Description: as §1

cGMP = assay: Plasma cGMP after SC bolus of natriuretic peptides in CD-1 mice (pharmacodynamics, Table 3); assay type: in vivo; conditions: SC bolus 1.0 mg/kg (≤0.45 μmol/kg), baseline 10 +/−8 pmol/ml, n = 3-5
Description: (§2) The test articles were formulated or dissolved in sterile water for injection on the same day of administration. […] Blood samples were collected via retro-orbital bleed at 2- and 6-hours post-injection, with two bleedings per animal at two different timepoints. The samples were collected in K2EDTA tubes, processed by centrifugation (2000×g; 15 m 4 eC within 30 minutes after collection), and the resulting plasma samples were stored at −80° C. Biochemical analysis: The plasma concentration of the respective natriuretic peptide was analyzed using commercially available ELISA kits from Phoenix Pharmaceuticals (Burlingame, CA): ANP ELISA (cat #EKE-005-06), BNP ELISA (cat #EKE-011-03), and CNP ELISA (cat #EKE-012-03). […] Plasma cGMP was analyzed using a commercially available kit from Abcam (ab133052, Waltham, MA).

[2] = Plasma concentration of respective natriuretic peptide by ELISA after SC bolus in CD-1 mice (pharmacokinetics, Table 3); conditions: male, CD-1, mouse, in vivo
Description: as §2

Row | Structure (SMILES) | MTD [1] [µmol/kg] | Swelling and/or Discoloration in n = 3 (Sprague Dawley rats) [µmol/kg] | Ataxia** in n = 3 (Sprague Dawley rats) [µmol/kg] | further results
1 | CCCCCCCCCCCCCCCCCC(=O)N[C@@H](CCCCN)C(=O)N[C@@H](CCCCN)C(=O)N[C@@H](CCCCN)C(=O)N[C@@H](CCCCN)C(=O)NCC(=O)NCC(=O)NCC(=O)O [SEQ ID NO: 2, CH3(CH2)16(C═O)-KKKKGGG] (Stearoyl-KKKKGGG-OH; C-terminus assumed) | ≥ 3 | ≥3 |  | 
2 | NCC[C@H](NC(=O)[C@H](CCN)NC(=O)COCCOCCNC(=O)COCCOCCNC(=O)COCCOCCNC(=O)CCCCCCCCCCCCCCCCC(=O)O)C(=O)O [SEQ ID NO: 18, (HOOC)(CH2)16(C═O)-Aeea-Aeea-Aeea-Dab-Dab] ({C18 diacid-AEEA-AEEA-AEEA}-[Dab]-[Dab]-OH; C-terminus assumed) | > 10 | >10 | >10 | 
3 | CCCCCCCCCCCCCCCC(=O)NCCOCCOCC(=O)NCCOCCOCC(=O)NCCOCCOCC(=O)N[C@@H](CCN)C(=O)N[C@@H](CCN)C(=O)N[C@@H](CCN)C(=O)O [SEQ ID NO: 9, CH3(CH2)14(C═O)-Aeea-Aeea-Aeea-Dab-Dab-Dab] ({Palmitoyl-AEEA-AEEA-AEEA}-[Dab]-[Dab]-[Dab]-OH; C-terminus assumed) | > 5 | ≥3 | >5 | 
4 | CCCCCCCCCCCCCCCC(=O)NCCOCCOCC(=O)NCCOCCOCC(=O)NCCOCCOCC(=O)N[C@@H](CN)C(=O)N[C@@H](CN)C(=O)N[C@@H](CN)C(=O)N[C@@H](CN)C(=O)O [SEQ ID NO: 22, CH3(CH2)14(C═O)-Aeea-Aeea-Aeea-Dap-Dap-Dap-Dap] ({Palmitoyl-AEEA-AEEA-AEEA}-[Dap][Dap][Dap][Dap]-OH; C-terminus assumed) | > 10 | >10 | >10 | 
5 | NCC[C@H](NC(=O)[C@H](CCN)NC(=O)COCCOCCNC(=O)COCCOCCNC(=O)CCCCCCCCCCCCCCCCC(=O)O)C(=O)O [SEQ ID NO: 21, (HOOC)(CH2)16(C═O)-Aeea-Aeea-Dab-Dab] ({C18 diacid-AEEA-AEEA}-[Dab]-[Dab]-OH; C-terminus assumed) | > 10 | >10 | >10 | 
6 | CCCCCCCCCCCCCCCC(=O)NCCCC(=O)NCCCC(=O)N[C@@H](CCN)C(=O)N[C@@H](CCN)C(=O)O [SEQ ID NO: 11, CH3(CH2)14(C═O)-γAbu-γAbu-Dab-Dab] ({Palmitoyl-GABA-GABA}-[Dab]-[Dab]-OH; C-terminus assumed) | > 10 | >10 | >10 | 
7 | CCCCCCCCCCCCCCCC(=O)N[C@@H](CCC(=O)O)C(=O)NCCOCCOCC(=O)NCCOCCOCC(=O)N[C@@H](CCN)C(=O)N[C@@H](CCN)C(=O)O [SEQ ID NO: 16, CH3(CH2)14(C═O)-E-Aeea-Aeea-Dab-Dab] (Palmitoyl-E[AEEA][AEEA][Dab][Dab]-OH; C-terminus assumed) | > 10 | >10 | >10 | 
8 | CCCCCCCCCCCCCCCC(=O)NCCOCCOCC(=O)NCCOCCOCC(=O)NCCOCCOCC(=O)N[C@H](CCCCN)C(=O)N[C@@H](CCCCN)C(=O)O [SEQ ID NO: 1, CH3(CH2)14(C═O)-Aeea-Aeea-Aeea-kK] | ≥ 3 | ≥3 | ≥3 | 
9 | CCCCCCCCCCCCCCCC(=O)N[C@@H](CCC(=O)NCCOCCOCC(=O)NCCOCCOCC(=O)N[C@@H](CCN)C(=O)N[C@@H](CCN)C(=O)O)C(=O)O [SEQ ID NO: 15, CH3(CH2)14(C═O)-γE-Aeea-Aeea-Dab-Dab] ({Palmitoyl-γGlu-AEEA-AEEA}-[Dab]-[Dab]-OH; C-terminus assumed) | > 10 | >10 | >10 | 
10 | CCCCCCCCCCCCCCCC(=O)NCCOCCOCC(=O)NCCOCCOCC(=O)NCCOCCOCC(=O)N[C@@H](CN)C(=O)N[C@@H](CN)C(=O)N[C@@H](CN)C(=O)O [SEQ ID NO: 19, CH3(CH2)14(C═O)-Aeea-Aeea-Aeea-Dap-Dap-Dap] ({Palmitoyl-AEEA-AEEA-AEEA}-[Dap]-[Dap]-[Dap]-OH; C-terminus assumed) | > 10 | >10 | >10 | 
11 | CCCCCCCCCCCCCCCC(=O)NCCOCCOCC(=O)NCCOCCOCC(=O)NCCOCCOCC(=O)N[C@@H](CCN)C(=O)N[C@@H](CN)C(=O)O [SEQ ID NO: 17, CH3(CH2)14(C═O)-Aeea-Aeea-Aeea-Dab-Dap] ({Palmitoyl-AEEA-AEEA-AEEA}-[Dab]-[Dap]-OH; C-terminus assumed) | > 10 | >10 | >10 | 
12 | CCCCCCCCCCCCCCCC(=O)NCCOCCOCC(=O)NCCOCCOCC(=O)N[C@@H](CN)C(=O)N[C@@H](CCN)C(=O)O [SEQ ID NO: 13, CH3(CH2)14(C═O)-Aeea-Aeea-Dap-Dab] ({Palmitoyl-AEEA-AEEA}-[Dap]-[Dab]-OH; C-terminus assumed) | > 10 | >10 | >10 | 
13 | CC[C@H](C)[C@@H]1NC(=O)[C@H](CCCNC(=N)N)NC(=O)[C@H](CC(=O)O)NC(=O)[C@H](CC(C)C)NC(=O)[C@H](CCCCN)NC(=O)[C@H](CC(C)C)NC(=O)CNC(=O)[C@H](Cc2ccccc2)NC(=O)[C@@H](NC(=O)CNC(=O)[C@H](CCCCN)NC(=O)[C@H](CO)NC(=O)[C@H](CC(C)C)NC(=O)CN)CSSC[C@@H](C(=O)O)NC(=O)CNC(=O)[C@H](CC(C)C)NC(=O)CNC(=O)[C@H](CO)NC(=O)[C@H](CCSC)NC(=O)[C@H](CO)NC(=O)CNC1=O [SEQ ID NO: 32, reference compound] |  |  |  | Plasma concentration of cGMP, 2 hr (cGMP): 8.7 pmol/mL; Plasma concentration of cGMP, 6 hr (cGMP): 9.5 pmol/mL; level at 2 h ([2]; mice, SC bolus 1.0 mg/kg (≤0.45 μmol/kg), 2 hr, ELISA, n = 3-5, read-out: Plasma concentration of respective Natriuretic Peptide, ANP, BNP, or CNP, 2 hr): 2.17 ng/mL; level at 6 h ([2]; mice, SC bolus 1.0 mg/kg (≤0.45 μmol/kg), 6 hr, ELISA, n = 3-5, read-out: Plasma concentration of respective Natriuretic Peptide, ANP, BNP, or CNP, 6 hr): 2.91 ng/mL
14 | CCCCCCCCCCCCCCCC(=O)N[C@@H](CCC(=O)O)C(=O)NCCOCCOCC(=O)NCCOCCOCC(=O)N[C@@H](CCN)C(=O)N[C@@H](CCN)C(=O)NCC(=O)N[C@@H](CC(C)C)C(=O)N[C@@H](CO)C(=O)N[C@@H](CCCCN)C(=O)NCC(=O)N[C@H]1CSSC[C@@H](C(=O)O)NC(=O)CNC(=O)[C@H](CC(C)C)NC(=O)CNC(=O)[C@H](CO)NC(=O)[C@H](CCC(N)=O)NC(=O)[C@H](CO)NC(=O)CNC(=O)[C@H]([C@@H](C)CC)NC(=O)[C@H](CCCNC(=N)N)NC(=O)[C@H](CC(=O)O)NC(=O)[C@H](CC(C)C)NC(=O)[C@H](CCCCN)NC(=O)[C@H](CC(C)C)NC(=O)CNC(=O)[C@H](Cc2ccccc2)NC1=O [SEQ ID NO: 38] (Palmitoyl-E[AEEA][AEEA][Dab][Dab]GLSKGCFGLKLDRIGSQSGLGC-OH; disulfide 11-27; C-terminus assumed) |  |  |  | Plasma concentration of cGMP, 2 hr (cGMP): 74.69* pmol/mL; Plasma concentration of cGMP, 6 hr (cGMP): 38.95*** pmol/mL; level at 2 h ([2]; sc, 1 mg/kg): 31.7 ng/mL; level at 6 h ([2]; sc, 1 mg/kg): 25.9 ng/mL
15 | CCCCCCCCCCCCCCCC(=O)NCCOCCOCC(=O)NCCOCCOCC(=O)NCCOCCOCC(=O)N[C@@H](CN)C(=O)N[C@@H](CN)C(=O)N[C@@H](CN)C(=O)NCC(=O)N[C@@H](CC(C)C)C(=O)N[C@@H](CO)C(=O)N[C@@H](CCCCN)C(=O)NCC(=O)N[C@H]1CSSC[C@@H](C(=O)O)NC(=O)CNC(=O)[C@H](CC(C)C)NC(=O)CNC(=O)[C@H](CO)NC(=O)[C@H](CCC(N)=O)NC(=O)[C@H](CO)NC(=O)CNC(=O)[C@H]([C@@H](C)CC)NC(=O)[C@H](CCCNC(=N)N)NC(=O)[C@H](CC(=O)O)NC(=O)[C@H](CC(C)C)NC(=O)[C@H](CCCCN)NC(=O)[C@H](CC(C)C)NC(=O)CNC(=O)[C@H](Cc2ccccc2)NC1=O [SEQ ID NO: 43] ({Palmitoyl-AEEA-AEEA-AEEA}-[Dap][Dap][Dap]GLSKGCFGLKLDRIGSQSGLGC-OH; disulfide 9-25; C-terminus assumed) |  |  |  | Plasma concentration of cGMP, 2 hr (cGMP): 114.85**** pmol/mL; Plasma concentration of cGMP, 6 hr (cGMP): 93.39**** pmol/mL; level at 2 h ([2]; sc, 1 mg/kg): 29.2 ng/mL; level at 6 h ([2]; sc, 1 mg/kg): 16.8 ng/mL
